How the values were obtained:
[1] = molecular target: T1, gastric H,K-ATPase (HKα1) (Mus musculus, UniProt Q64436); experiment: K-ATPase activity dose response in gastric membrane vesicles; assay type: cell-based; details: read-out: % inhibition at 100 μM
[2] = molecular target: T1, gastric H,K-ATPase (HKα1); experiment: as above; assay type: cell-based

T1 sequence (Q64436 whole entry): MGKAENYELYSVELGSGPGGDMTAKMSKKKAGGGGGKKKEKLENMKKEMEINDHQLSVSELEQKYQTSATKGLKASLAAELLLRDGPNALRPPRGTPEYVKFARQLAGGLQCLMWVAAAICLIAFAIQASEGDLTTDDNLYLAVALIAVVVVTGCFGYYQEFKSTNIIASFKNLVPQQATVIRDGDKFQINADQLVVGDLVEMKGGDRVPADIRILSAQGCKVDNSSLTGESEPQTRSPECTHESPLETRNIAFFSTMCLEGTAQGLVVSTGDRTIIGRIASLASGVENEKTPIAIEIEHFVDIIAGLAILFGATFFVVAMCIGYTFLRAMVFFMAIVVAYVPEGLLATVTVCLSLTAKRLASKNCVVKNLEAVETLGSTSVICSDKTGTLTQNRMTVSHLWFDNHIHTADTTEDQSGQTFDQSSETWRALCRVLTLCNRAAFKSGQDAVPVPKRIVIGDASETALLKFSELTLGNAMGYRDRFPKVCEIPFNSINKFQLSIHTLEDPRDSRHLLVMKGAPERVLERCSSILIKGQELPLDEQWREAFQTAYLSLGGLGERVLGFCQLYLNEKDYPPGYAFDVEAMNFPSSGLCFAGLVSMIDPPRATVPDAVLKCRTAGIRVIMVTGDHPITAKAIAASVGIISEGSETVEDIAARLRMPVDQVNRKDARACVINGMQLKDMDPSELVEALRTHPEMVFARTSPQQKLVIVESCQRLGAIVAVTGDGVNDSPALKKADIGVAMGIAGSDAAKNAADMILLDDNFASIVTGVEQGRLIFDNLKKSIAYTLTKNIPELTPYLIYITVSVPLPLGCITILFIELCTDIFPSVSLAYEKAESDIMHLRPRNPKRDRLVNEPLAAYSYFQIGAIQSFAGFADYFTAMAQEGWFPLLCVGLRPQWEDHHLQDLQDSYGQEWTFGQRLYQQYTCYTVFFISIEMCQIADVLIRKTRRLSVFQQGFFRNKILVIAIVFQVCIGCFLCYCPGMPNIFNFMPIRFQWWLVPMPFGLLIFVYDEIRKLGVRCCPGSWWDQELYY
T1 sequence (P50992 whole entry partner): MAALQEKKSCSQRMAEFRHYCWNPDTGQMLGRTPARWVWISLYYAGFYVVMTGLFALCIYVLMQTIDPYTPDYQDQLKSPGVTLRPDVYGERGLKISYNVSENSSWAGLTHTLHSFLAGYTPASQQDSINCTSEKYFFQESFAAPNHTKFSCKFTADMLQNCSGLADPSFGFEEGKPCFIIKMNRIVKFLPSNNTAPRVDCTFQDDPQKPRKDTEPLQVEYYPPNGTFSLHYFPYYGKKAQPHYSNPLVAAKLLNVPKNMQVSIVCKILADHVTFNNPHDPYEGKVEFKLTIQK

Row | SMILES | inhibition at 100 µM [1] | K-ATPase activity dose response in gastric membrane vesicles [2]
1 | N=C(N)NC(=O)c1nc(Cl)c(N)nc1N [amiloride] | ~65% | –
2 | CCN(c1nc(N)c(C(=O)N=C(N)N)nc1Cl)C(C)C [EIPA, 5-N-ethyl-N-isopropylamiloride] | – | Amiloride derivatives benzamil and EIPA had similar inhibitory effects on the gastric K-ATPase activity
3 | NC(=NCc1ccccc1)NC(=O)c1nc(Cl)c(N)nc1N [benzamil] | – | Amiloride derivatives benzamil and EIPA had similar inhibitory effects on the gastric K-ATPase activity

— publication PMC4337798 (Biochimica et biophysica acta, 2010)
